According to patent US20220071210A1, “FUNGICIDAL MIXTURE” (Adama Makhteshim Ltd., priority 2018, published 2022):

Test system: Ramularia collo-cygni
Test: Fungicidal control of Ramularia collo-cygni on winter barley (spray treatments, alone and tank mix)
Type: in vivo
Conditions: sprayed twice 14 days apart, rate (gr A.I./ha) as in table; for % control observed, 38 Days after 2nd application: untreated severity 85.6%; for % control observed, 44 Days after 2nd application: untreated severity 100%
Experimental: An experiment was conducted to evaluate the fungicidal control of Ramularia collo-cygni on winter barley with a dehydrogenase inhibitor fungicide (fluxapyroxad), and folpet, alone, and in binary mixtures.
The experiments were conducted by applying a commercially available composition of fluxapyroxad (Imtrex®) and folpet (MCW-296 SC) alone or together. The compositions were diluted with water to the stated concentration of the active compound.
The following active ingredients and their mixtures were evaluated: • Fluxapyroxad 90 gr (A.I.)/ha • Folpet 750 gr (A.I.)/ha • Fluxapyroxad+Folpet 90 gr (A.I.)/ha+750 gr (A.I.)/ha
To test for fungicidal control of Ramularia collo-cygni, the winter barley was sprayed with each of the above treatments. Each of the above treatments were applied twice, the 2nd treatment occurring 14 days after the first treatment. The treatments were composed of 4 replicates.
Evaluations were performed at 38 days and 44 days after the second treatment. At these times the severity of the Ramularia collo-cygni was determined. At the time of the 1st evaluation (38 days after the second treatment) the severity of the infection of Ramularia collo-cygni on the winter barley was 85.6%. At the time of the 2nd evaluation (44 days after the second treatment) the severity was 100%.
The visually determined percentages of infected leaf areas may be converted into efficacies in % of the untreated control:
The efficacy (E) is calculated as follows using Abbott's formula: […]
A corresponds to the fungicidal infection of the treated plants in % and B corresponds to the fungicidal infection of the untreated (control) plants in %.
An efficacy of 0 means that the infection level of the treated plants corresponds to that of the untreated control plants; an efficacy of 100 means that the treated plants are not infected.
In the field of agriculture, it is often understood that the term “synergy” is as defined by Colby S. R. in an article entitled “Calculation of the synergistic and antagonistic responses of herbicide combinations” published in the journal Weeds, 1967, 15, p. 20-22. The action expected for a given combination of two active components can be calculated as follows: […]
in which E represents the expected percentage of fungicidal control for the combination of the two fungicides at defined doses (for example equal to x and y respectively), X is the percentage of fungicidal control observed by the compound (I) at a defined dose (equal to x), Y is the percentage of fungicidal control observed by the compound (II) at a defined dose (equal to y). When the percentage of fungicidal control observed for the combination is greater than the expected percentage, there is a synergistic effect.

| SMILES | % control observed, 38 Days after 2nd application | % control observed, 44 Days after 2nd application |
| --- | --- | --- |
| O=C1c2ccccc2C(=O)N1SC(Cl)(Cl)Cl [Folpet, folpet] | 30.3% | 9.7% |
| Cn1cc(C(=O)Nc2ccccc2-c2cc(F)c(F)c(F)c2)c(C(F)F)n1 [Fluxapyroxad, fluxapyroxad] | 47.1% | 12.2% |
